Reference: ChEMBL document CHEMBL5543174, “A Nonbactericidal Anionic Antimicrobial Peptide Provides Prophylactic and Therapeutic Efficacies against Bacterial Infections in Mice by Immunomodulatory-Antithrombotic Duality” (J Med Chem, 2024)
Active and inactive are the calls of the source. The calls are words filed in the database; no cut-off is given here.

Columns and labels:
Staphylococcus aureus [1] = assay: (§1) Antibacterial activity against Methicillin-resistant Staphylococcus aureus infected in C57BL/6 mouse with clodronate liposome-induced monocyte depletion model assessed as reduction of bacterial burden in peritoneal cavity at 10 mg/kg,ip pre-administrated 5 hrs before bacterial infection measured after 24 hrs; assay type: functional, organism-based; conditions: time 29.0 hrs
Mus musculus [2] = assay: Anticoagulation activity in mouse infected with Carbapenem-resistant Escherichia coli assessed as increase in plasma TFPI expression at 10 mg/kg,ip pre-administrated 5 hrs before bacterial infection measured after 24 hrs by ELISA; assay type: functional, organism-based; conditions: time 29.0 hrs
Escherichia coli [3] = assay: Antimicrobial activity against Escherichia coli ATCC 25922 assessed as reduction in microbial colony forming unit at 200 ug/ml incubated for 1 to 4 hrs by time-kill kinetics based analysis; assay type: functional, organism-based; conditions: dose 200.0 µg/ml, time 1-4 hrs
Candida albicans [4] = assay: Antimicrobial activity against Candida albicans ATCC 2002 assessed as inhibition of microbial growth at <= 200 ug/ml incubated for 18 hrs by micro-broth dilution method; assay type: functional, organism-based; conditions: dose <= 200.0 µg/ml
Peritoneal macrophage [5] = assay: Induction of chemotaxis in mouse Peritoneal macrophage assessed as upregulation of MCP-1 production at 100 ug/ml preincubated with MTS510 followed by compound addition by ELISA; assay type: functional, cell-based; conditions: dose 100.0 µg/ml
Mus musculus [6] = assay: Induction of chemotaxis in C57BL/6 mouse assessed as upregulation of CXCL1 expression in peritoneal lavage at 10 mg/kg,ip administration measured at 5 to 24 hrs by ELISA; assay type: functional, organism-based; conditions: time 5-24 hrs
Neutrophil [7] = assay: Induction of degranulation in mouse bone marrow derived neutrophil assessed as increase in BPI release at 25 to 100 ug/ml incubated for 6 hrs by ELISA; assay type: functional, cell-based; conditions: dose 25-100 µg/ml
Staphylococcus aureus [8] = assay: Antibacterial activity against Staphylococcus aureus ATCC 25923 infected in C57BL/6 mouse assessed as increase in survival rate at 10 mg/kg,ip administrated 5 hrs after bacterial infection measured after 7 days; assay type: functional, organism-based; conditions: time 7.0 day
Candida albicans [9] = assay: Antimicrobial activity against Candida albicans ATCC 2002 assessed as reduction in metabolic activity at < 200 ug/ml incubated for 1 to 4 hrs by CCK-8 assay; assay type: functional, organism-based; conditions: dose < 200.0 µg/ml, time 1-4 hrs
Escherichia coli [10] = assay: Antibacterial activity against Carbapenem-resistant Escherichia coli infected in C57BL/6 mouse assessed as reduction in TNF-alpha level in serum at 10 mg/kg,ip pre-administrated 5 hrs before bacterial infection measured after 24 hrs by ELISA; assay type: functional, organism-based; conditions: time 29.0 hrs
Escherichia coli [11] = assay: Antibacterial activity against Escherichia coli ATCC 25922 infected in C57BL/6 mouse assessed as reduction in TNF-alpha level in peritoneal fluid at 10 mg/kg,ip administrated 5 hrs after bacterial infection measured after 24 hrs by ELISA; assay type: functional, organism-based; conditions: time 19.0 hrs
Staphylococcus aureus [12] = assay: Antibacterial activity against Staphylococcus aureus ATCC 25923 infected in C57BL/6 mouse assessed as reduction in IL-1beta level in serum at 10 mg/kg,ip administrated 5 hrs after bacterial infection measured after 24 hrs by ELISA; assay type: functional, organism-based; conditions: time 19.0 hrs
Escherichia coli [13] = assay: Antibacterial activity against Escherichia coli ATCC 25922 infected in C57BL/6 mouse assessed as reduction in TNF-alpha level in serum at 10 mg/kg,ip administrated 5 hrs after bacterial infection measured after 24 hrs by ELISA; assay type: functional, organism-based; conditions: time 19.0 hrs
Bacillus subtilis = assay: Antimicrobial activity against Bacillus subtilis ATCC6633 assessed as inhibition of microbial growth at <= 200 ug/ml incubated for 18 hrs by micro-broth dilution method; assay type: functional, organism-based; conditions: dose <= 200.0 µg/ml
Mus musculus [14] = assay: Anticoagulation activity in mouse assessed as change in plasma TFPI expression at 10 mg/kg,ip measured after 24 hrs by ELISA; assay type: functional, organism-based
Staphylococcus aureus [15] = assay: as §1, with “cyclophosphamide-induced neutrophil” for “clodronate liposome-induced monocyte”; assay type: functional, organism-based; conditions: time 29.0 hrs
Peritoneal macrophage [16] = assay: Immunoregulatory activity in mouse Peritoneal macrophage assessed as upregulation of IkappaBalpha phosphorylation incubated for 1 hr by Western blotting analysis; assay type: functional, cell-based
Nakaseomyces glabratus = assay: Antimicrobial activity against Candida glabrata ATCC 66032 assessed as inhibition of microbial growth at <= 200 ug/ml incubated for 18 hrs by micro-broth dilution method; assay type: functional, organism-based; conditions: dose <= 200.0 µg/ml
Escherichia coli [17] = assay: Antibacterial activity against Carbapenem-resistant Escherichia coli infected in C57BL/6 mouse assessed as reduction in IL-6 level in serum at 10 mg/kg,ip administrated 5 hrs after bacterial infection measured after 24 hrs by ELISA; assay type: functional, organism-based; conditions: time 19.0 hrs
Neutrophil [18] = assay: Induction of chemotaxis in mouse bone marrow derived neutrophil assessed as increase in neutrophil migration at 100 ug/ml preincubated with PTX for 30 mins followed by compound addition measured after 8 hrs by crystal violet staining based indirect transwell assay; assay type: functional, cell-based; conditions: dose 100.0 µg/ml
Mus musculus [19] = assay: Immunomodulatory activity in clodronate liposome immunosuppressed C57BL/6 mouse with monocyte depletion model assessed as increase in number of monocyte in peritoneal lavage at 10 mg/kg,ip administration measured after 5 hrs by flow cytometry; assay type: functional, organism-based
Escherichia coli [20] = assay: Antibacterial activity against Escherichia coli ATCC 25922 infected in C57BL/6 mouse assessed as reduction in IL-1beta level in serum at 10 mg/kg,ip administrated 5 hrs after bacterial infection measured after 24 hrs by ELISA; assay type: functional, organism-based; conditions: time 19.0 hrs
Mus musculus [21] = assay: Antithrombotic activity in BALB/c mouse dorsal skin defect model assessed as increase in skin bleeding time at 30 mg/kg,SC administration; assay type: functional, organism-based
Escherichia coli [22] = assay: Antibacterial activity against Carbapenem-resistant Escherichia coli infected in C57BL/6 mouse assessed as increase in survival rate at 10 mg/kg,ip pre-administrated 5 hrs before bacterial infection measured after 7 days; assay type: functional, organism-based; conditions: time 7.0 day
Plasma = assay: Anticoagulation activity in human platelet poor plasma assessed as elongation of prothrombin time at 100 ug/ml measured after 5 mins; assay type: functional, cell-free; conditions: dose 100.0 µg/ml
Neutrophil [23] = assay: Induction of phagocytosis in mouse bone marrow derived neutrophil cultured with CFSE-labeled Methicillin-resistant Staphylococcus aureus incubated for 1.5 hrs followed by bacterial exposure for 1 hr by flow cytometry; assay type: functional, cell-based; conditions: time 2.5 hrs
Candida albicans [24] = assay: Antimicrobial activity against Candida albicans ATCC 2002 assessed as reduction in microbial colony forming unit at 200 ug/ml incubated for 1 to 4 hrs by time-kill kinetics based analysis; assay type: functional, organism-based; conditions: dose 200.0 µg/ml, time 1-4 hrs
Mus musculus [25] = assay: Immunomodulatory activity in cyclophosphamide immunosuppressed C57BL/6 mouse with neutrophil depletion model assessed as change in B-lymphocytes in peritoneal lavage at 10 mg/kg,ip administration measured after 5 to 24 hrs by flow cytometry; assay type: functional, organism-based; conditions: time 5-24 hrs
Escherichia coli [26] = assay: Antibacterial activity against Escherichia coli ATCC 25922 infected in C57BL/6 mouse assessed as reduction in TNF-alpha level in peritoneal fluid at 10 mg/kg,ip pre-administrated 5 hrs before bacterial infection measured after 24 hrs by ELISA; assay type: functional, organism-based; conditions: time 29.0 hrs
Peritoneal macrophage [27] = assay: Immunomodulatory activity in mouse Peritoneal macrophage assessed as decrease in LTA-induced IL-1beta production at 25 to 100 ug/ml incubated for 6 hrs by ELISA; assay type: functional, cell-based; conditions: dose 25-100 µg/ml
Mus musculus [28] = assay: Induction of chemotaxis in C57BL/6 mouse assessed as upregulation of CXCL2 expression in peritoneal lavage at 10 mg/kg,ip administration measured at 5 to 24 hrs by ELISA; assay type: functional, organism-based; conditions: time 5-24 hrs
Morganella morganii = assay: Antimicrobial activity against Morganella morganii ATCC25830 assessed as inhibition of microbial growth at <= 200 ug/ml incubated for 18 hrs by micro-broth dilution method; assay type: functional, organism-based; conditions: dose <= 200.0 µg/ml

CC[C@H](C)[C@H](NC(=O)[C@@H]1CSSC[C@H](NC(=O)[C@H](CCC(=O)O)NC(=O)[C@@H](NC(=O)[C@H](CCCCN)NC(=O)[C@H](Cc2c[nH]cn2)NC(=O)[C@@H](NC(=O)[C@H](CCCCN)NC(=O)[C@H](CCC(=O)O)NC(=O)[C@H](C)NC(=O)[C@H](CCC(=O)O)NC(=O)[C@H](CCC(=O)O)NC(=O)[C@H](CCC(=O)O)NC(=O)[C@H](C)N)[C@@H](C)O)[C@@H](C)O)C(=O)N[C@@H](CC(C)C)C(=O)N[C@@H](CCC(=O)O)C(=O)N1)C(=O)N[C@@H](Cc1ccccc1)C(=O)N[C@H](C(=O)N[C@@H](CC(C)C)C(=O)N[C@@H](CC(C)C)C(=O)N1CCC[C@H]1C(=O)N1CCC[C@@H]1C(=O)N[C@H](C)C(=O)O)[C@@H](C)O
Activity (Staphylococcus aureus [1]): inactive | Activity (Mus musculus [2]): Active | Activity (Escherichia coli [3]): inactive | Activity (Candida albicans [4]): inactive | Activity (Peritoneal macrophage [5]): Active | Activity (Mus musculus [6]): inactive | Activity (Neutrophil [7]): Active | Activity (Staphylococcus aureus [8]): Active | Activity (Candida albicans [9]): inactive | Activity (Escherichia coli [10]): Active | Activity (Escherichia coli [11]): Active | Activity (Staphylococcus aureus [12]): Active | Activity (Escherichia coli [13]): Active | Activity (Bacillus subtilis): inactive | Activity (Mus musculus [14]): inactive | Activity (Staphylococcus aureus [15]): inactive | Activity (Peritoneal macrophage [16]): Dose-Dependent Effect | Activity (Nakaseomyces glabratus): inactive | Activity (Escherichia coli [17]): Active | Activity (Neutrophil [18]): inactive | Activity (Mus musculus [19]): Active | Activity (Escherichia coli [20]): Active | Activity (Mus musculus [21]): inactive | Activity (Escherichia coli [22]): Active | Activity (Plasma): inactive | Activity (Neutrophil [23]): Dose-Dependent Effect | Activity (Candida albicans [24]): inactive | Activity (Mus musculus [25]): inactive | Activity (Escherichia coli [26]): Active | Activity (Peritoneal macrophage [27]): inactive | Activity (Mus musculus [28]): inactive | Activity (Morganella morganii): inactive
